Each structure is given as a SMILES string. Residues, ends and D or L forms follow the SMILES beside them.

Assay [1] deals with mouse renal ischemia reperfusion. Kind of assay: Mice renal failure test (mouse renal ischemia reperfusion), mortality. Type of assay: in vivo. The settings on record: score = animals died - animals in group. Here is the method: Dipeptides are tested and compared with PBS (control) in a double blind animal study for a dipeptide's relative ability to aid recovery in a mouse renal ischemia reperfusion or mouse renal failure test. Under inhalation anesthesia, the left kidney with its artery and vein is isolated and occluded for 25 minutes using a microvascular clamp. During surgery, animals are placed on a heating path to maintain body temperature at 37°C. Five minutes before placing the clamp, and 5 minutes before releasing the clamp, dipeptide, dissolved in 0.1 mL of sterile saline, is administered intravenously. After reperfusion of the left kidney the right kidney is removed. Kidney function is assessed by measuring blood urea nitrogen before clamping, and at 2, 24, and 72 hours after reperfusion, by determining mRNA levels for cytokine expression, and such.
In short, in this test, the mice are anesthetized, and one kidney from each mouse is removed. The other kidney is tied off for 25 minutes, and the ischemia levels in the kidney are allowed to increase. Both before and/or after tying off, GLN-containing dipeptide is administered to 8 to 10 different mice per group (dosages vary per group from for example 0.7, 3, 7, 30 and 70 mg dipeptide / kg body mass intravenously). The mortality of the mice is determined for each oligopeptide as well as for example the BUN or creatinine concentration at two hours, 24 hours and 72 hours. Two dipeptides AQ and LQ are for example tested in a dose-response manner in the mice renal failure test. Dipeptides are tested at dosages of 0.7, 3, 7, 30 and 70 mg/kg body weight given intravenously.

The test system of another assay is Hemorrhagic shock. Kind of assay: Rat hemorrhagic shock study, recovery of mean arterial pressure. Type of assay: in vivo, Rats. The conditions noted are these: AQ intravenously 0.7 to 70 mg/kg with Ringer's lactate during resuscitation; compared with the LR group. Here is the method:
(§1) Methods: Rats are randomly assigned to groups. Under isoflurane anesthesia, the femoral artery and vein are cannulated. Hemorrhagic shock is induced by withdrawing blood through the arterial cannula until the mean arterial pressure (MAP) is 25-30 mm Hg and maintained at the level for 30 minutes with further withdrawals. Resuscitation is carried out by giving 21 mL/kg Ringer's lactate (LR) with or without the administration of AQ (intravenously at ranges from 0.7 to 70 mg/kg) and returning the shed blood. Controls are normal (anesthesia only), sham (surgical preparation), and shock (preparation and shock). Rats (n = 80, 10 per group) are killed 30 minutes after completion of resuscitation. Liver samples are collected, and total RNA is isolated for reverse transcription-polymerase chain reaction analysis of mRNA (TNF-a). […] Increased expression of liver mRNA for TNF-alpha is seen after hemorrhagic shock and resuscitation.

The subject of another assay is TNF-alpha. Kind of assay: Rat hemorrhagic shock study, liver mRNA by reverse transcription-polymerase chain reaction. Format: in vivo, Rats. The conditions noted are these: AQ intravenously 0.7 to 70 mg/kg during resuscitation; liver samples 30 minutes after completion of resuscitation. The protocol: as §1

Regarding `CC(C)C[C@H](N)C(=O)N[C@@H](CCC(N)=O)C(=O)O` [LQ, leucyl-glutamine] (H-Leu-Gln-OH), the “Mortality in mice renal failure experiment 24h” value in assay [1] (0.7 mg/kg intravenously) is 0-9; in assay [1] (3.0 mg/kg intravenously) it was 0-10; in assay [1] (7.0 mg/kg intravenously) it was 1-10; in assay [1] (30.0 mg/kg intravenously), 0-10; in assay [1] (70.0 mg/kg intravenously) it was 0-8. In addition, the “Mortality in mice renal failure experiment 72h” value is listed as 2-9 in assay [1] (0.7 mg/kg intravenously); 1-9 in assay [1] (3.0 mg/kg intravenously); 1-10 in assay [1] (7.0 mg/kg intravenously); 0-9 in assay [1] (30.0 mg/kg intravenously); 3-9 in assay [1] (70.0 mg/kg intravenously).
Regarding `C[C@H](N)C(=O)N[C@@H](CCC(N)=O)C(=O)O` [AQ, alanyl-glutamine] (H-Ala-Gln-OH), the “Mortality in mice renal failure experiment 24h” value in assay [1] (0.7 mg/kg intravenously) was 0-9; in assay [1] (3.0 mg/kg intravenously) it was 0-10; in assay [1] (7.0 mg/kg intravenously), 0-10; in assay [1] (30.0 mg/kg intravenously), 0-8; in assay [1] (70.0 mg/kg intravenously), 0-9. For the same compound, the “Mortality in mice renal failure experiment 72h” value in assay [1] (0.7 mg/kg intravenously) is 2-9; in assay [1] (3.0 mg/kg intravenously), 1-9; in assay [1] (7.0 mg/kg intravenously) it was 0-9; in assay [1] (30.0 mg/kg intravenously), 1-10; in assay [1] (70.0 mg/kg intravenously) it was 1-9. Besides, the MAP recovery result in the assay on Hemorrhagic shock is recorded as “recovers more quickly”. Moreover, in the assay on TNF-alpha, the “expression of liver mRNA for TNF-alpha” value is listed as “reduces mRNA expression for TNF-alpha”.

Values taken from patent publication EP2106791A1, “Glutamine or glutamine-containing dipeptide in a specific dosage for the treatment of inflammation” (Biotempt B.V., priority 2008, dated 2009).
